# Laboratory results from US7169604B1, “Method for PR-39 peptide mediated selective inhibition of IκBα degradation” (Beth Israel Deaconess Medical Center, priority 1998, dated 2007).
# Ends that are not written are not given here.
# What was measured:
# [1] = target: T1, α7 subunit of the 20S proteasome (Mus musculus, UniProt O70435); experiment: Yeast two-hybrid binding of PR-39 to α7 and its fragments; settings: growth of lacZ+ colonies on selective medium; deletion mutants of mouse α7
# T1 construct: made in house; host or cells: yeast (Y190 for the screen, CG1945 for the deletion analysis)
# T1 sequence (O70435 1-255): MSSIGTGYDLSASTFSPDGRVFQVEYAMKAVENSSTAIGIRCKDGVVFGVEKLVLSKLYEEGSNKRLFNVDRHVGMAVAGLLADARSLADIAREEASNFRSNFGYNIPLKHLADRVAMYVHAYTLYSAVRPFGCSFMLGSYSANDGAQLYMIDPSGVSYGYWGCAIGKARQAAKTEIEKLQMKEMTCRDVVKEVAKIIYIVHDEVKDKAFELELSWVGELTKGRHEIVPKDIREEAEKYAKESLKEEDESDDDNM
# Excerpt: Two-hybrid screening was done using Clontech MATCHMAKER GAL4 System 2 (Clontech). cDNA of porcine PR39 peptide corresponding to the 4th exon (amino acids 131 to 169) was subcloned into pAS2-1 vector as bait. Mouse embryo 3T3 MATCHMAKER cDNA library (Clontech) was screened in the yeast Y190 strain. Plasmids from HIS3/LacZ positive clones were sequenced and co-transformed with bait plasmid back into the Y190 strain to confirm the interaction.
# To identify possible intracellular targets of PR-39 peptide action, a yeast two-hybrid screen of mouse CDNA library was performed using the unique 4th exon DNA sequence of porcine PR-39 gene as “bait”. […] All four clones encoded overlapping identical cDNA sequences which are highly homologous to the sequence of the human α7 (HC8) subunit of the 20S proteasome (GeneBank accession AF055983).
# Deletion mutants of the mouse α7 subunit were cloned into yeast two-hybrid vector, and the extent of growth of lacZ+ colonies on selective medium following co-transformation with PR-39 construct in the yeast CG1945 was determined.
# IκBα [2] = experiment: Reversibility of inhibition of IκBα degradation after washout in U937 cells; format: cell-based, human; settings: 100 nM for 45 min, washed, 45 min later TNF-α 1 ng/ml, 10 min
# Method: In parallel cells were exposed to MG132, a rapidly reversible competitive inhibitor of the proteasome or with lactacystin which covalently and irreversibly modifies the active site threonine residues. The results are shown by FIG. 1F.
# U937 cells were pretreated with 100 nM of PR-39, 10 μM of either MG132 or lactacystin (LC) or buffer (Control) for 45 min. These cells were then extensively washed with fresh medium. 45 min later TNF-α (1 ng/ml) was added to medium, and the extent of IκBα degradation was determined 10 min later by Western blotting.
# U937 cells = experiment: Proteasome-dependent degradation of total cellular proteins (35S Met pulse-chase); format: cell-based, human; settings: 10 μM, 1 hr chase, chloroquin 45 μM, after 16 hr metabolic labeling
# Method: Therefore the extent of degradation of long-lived cell proteins before or following exposure was compared to either PR-39 or MG132. The result is given by FIG. 3A.
# Exponentially proliferating U937 cells were grown in 10% FBS-RPMI 1640 methionine-free medium supplemented with 200 μCi ^35S Met for 16 hr. Cells were then washed with complete RPMI 1640 medium 3 times and cultured in 10% FBS-RPMI (chase) in the presence of 10 μM of either PR-39 or MG132 or an equal volume of PBS. Chloroquin (45 μM) was added to all cultures to prevent the lysosomal protein degradation. 1 hr later the cells were lysed, and TCA soluble ^35S counts were measured in a liquid scintillation counter (LKB). All experiments were carried out in triplicate and repeated three times. The data are shown as mean±standard deviation.
# [3] = Infarct size in mice, ischemia-reperfusion injury; format: in vivo; settings: infusion prior to restoration of flow
# Excerpt: • a. Inhibition of ischemia-reperfusion injury. Restoration of blood flow to the myocardium in the setting of acute myocardial infarction leads to further damage to ischemic but still live heart muscle due to an influx of inflammatory blood cells that is mediated by NFκB-activated expression of endothelial adhesion molecules ICAM-1 and VCAM-1. Infusion of PR39 prior to restoration of flow blocks this effect due to inhibition of NFκB activity and effectively protects from further myocardial injury. […] Inhibition of chemical pancreatitis. Tissue injury in the pancreas due to chemical or hormonal injury is one of the more common causes of acute pancreatitis. This is largely mediated by NFκB. Pre-treatment with PR39 blocks this injury. • c. PR39 will block any other injury activated NFκB-dependent gene transcription and thus can be used to block the development of skin wounds, ulcers (stomach, duodenum), etc.
# ICAM-1 and VCAM-1 = ICAM-1 and VCAM-1 expression in mouse infarct model; format: in vivo; settings: transgenic αMHC-PR-39 mice vs control mice, coronary artery ligation, 1, 3 or 7 days
# Excerpt: NFκB-dependent transcription is also activated following induction of ischemia in the heart, leading to increased expression of several adhesion molecules, including ICAM-1 and VCAM-1. To test the effect of PR-39 peptide on NFκB-dependent gene expression in this model, we assessed VCAM-1 and ICAM-1 protein levels following induction of myocardial infarction in transgenic mice expressing PR-39 cDNA in cardiac myocytes (αMHC-PR-39) and age-matched control mice. The result is given by FIG. 2D.
# Transgenic mice stably expressing PR-39 in cardiac myocytes (αMHC-PR-39 mice) or litter mate controls (control mice) were subjected to acute coronary artery ligation as described (30) and randomized to intraperitoneal implantation of Alzet minipumps (Alza Corp, Palo Alto, Calif.) delivering 1 μg/kg/24 hr of PR-39 or buffer. Myocardial tissues collected 1, 3 or 7 days later were subjected to Western blot analysis for ICAM-1 and VCAM-1 gene expression that were normalized to expression levels prior to induction of infarction. Note the rapid increase in both ICAM-1 and VCAM-1 expression in control but not αMHC-PR-39 mice.
# In contrast, induction of myocardial infarction had no effect on either ICAA-1 or VCAM-1 protein levels in αMHC-PR-39 mice.
# IκBα [4] = target: T2, IκBα (Homo sapiens, UniProt P25963); experiment: In vitro IκBα ubiquitination assay with HeLa cell extract; settings: cell free system, two different concentrations
# T2 sequence (P25963 1-317): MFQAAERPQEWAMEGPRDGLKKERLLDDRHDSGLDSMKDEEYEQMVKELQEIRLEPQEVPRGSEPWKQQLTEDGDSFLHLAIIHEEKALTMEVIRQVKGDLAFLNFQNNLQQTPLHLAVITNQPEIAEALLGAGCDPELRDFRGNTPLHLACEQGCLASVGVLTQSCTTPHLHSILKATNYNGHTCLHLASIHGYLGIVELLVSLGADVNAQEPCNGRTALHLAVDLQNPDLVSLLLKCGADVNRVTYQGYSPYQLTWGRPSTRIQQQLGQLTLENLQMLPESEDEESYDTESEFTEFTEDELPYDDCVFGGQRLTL
# Method: HeLa cells were harvested by centrifugation at 4,000 rpm. The packed cell volume was estimated, and the cells osmotically lysed by the addition of 5 volumes of hypotonic buffer (10 mM Tris-Cl, pH 7.9, 1.5 mM MgCl2, 10 mM KCl, 0.2 mM PMSF, 0.5 mM DTT). The mixture was incubated on ice for 10 minutes, then homogenized with 12 strokes of a Dounce homogenizer (B Type pestle). The crude lysate was centrifuged for 15 minutes at 4,000 rpm, followed by recentrifugation of the supernatant at 100,000×g for 30 minutes. This supernatant was concentrated by the addition of solid (NH4)2SO4 to 80% saturation, stirred at 4° C. for 30 minutes and centrifuged for 15 minutes at 12,000 rpm. The precipitate was resuspended in 1/5 volume of 20 mM Tris-Cl pH7.6, 20 mM KCl, 5 mM MgCl 2, 1 mM DTT, 0.5 mM PMSF, 5 μM Chymostatin and 20 μM E64, and dialyzed against >500 volumes of 20 mM Tris-Cl pH 7.6, 20 mM KCl, 5 mM MgCl2, 1 mM DTT, 10% glycerol at 4° C. overnight and stored at −70° C. until use.
# PR-39 or control peptides were also added to individual reactions. […] The samples were then heated for 5 minutes at 95° C. and analyzed by SDA-PAGE on 4-15% acrylamide gradient gels (BioRad, Hurcules, Calif.). After electrophoresis, the gels were incubated with gentle stirring in 30% methanol 10% acetic acid, dried and analyzed using a Fuji phosphorimager. […]
# HSP70 = HSP70 expression by Western blotting; format: cell-based, human
sequence,measurement,setting,value
RRRPRPPYLPRPRPPPFFPPRLPPRIPPGFPPRFPPRFP [PR-39],binding of PR-39 to α7 and its fragments,[1],only the full length a7 construct was able to bind to PR-39
same,extent of IκBα degradation after washout,IκBα [2],complete disappearance of IκBα protein
same,inhibition of total cell protein degradation,U937 cells,little or no effect
same,reduction of infarct size,[3],60%
same,NFκB-dependent gene expression (ICAM-1 and VCAM-1 protein levels),ICAM-1 and VCAM-1,blocks NFκB-dependent gene expression
same,IκBα ubiquitination in vitro,IκBα [4],failed to affect IκBα ubiquitination
same,HSP70 expression,"HSP70; U937 cells, 1 μM, 3 hr exposure",lack of induction of HSP70 expression
same,HSP70 levels,"HSP70; cultured ECV304 cells, 10 μM",failed to stimulate HSP70 accumulation
